Literature values, collected in patent US10758505B2, “Therapeutic compositions and methods” (Innovus Pharmaceuticals, Inc., priority 2017, dated 2020).

Assays:
human CYP3A4 = human CYP3A4 (Homo sapiens, UniProt P08684)
P-glycoprotein = P-glycoprotein (Homo sapiens, UniProt P08183)
Sequence of P-glycoprotein (P08183 whole entry): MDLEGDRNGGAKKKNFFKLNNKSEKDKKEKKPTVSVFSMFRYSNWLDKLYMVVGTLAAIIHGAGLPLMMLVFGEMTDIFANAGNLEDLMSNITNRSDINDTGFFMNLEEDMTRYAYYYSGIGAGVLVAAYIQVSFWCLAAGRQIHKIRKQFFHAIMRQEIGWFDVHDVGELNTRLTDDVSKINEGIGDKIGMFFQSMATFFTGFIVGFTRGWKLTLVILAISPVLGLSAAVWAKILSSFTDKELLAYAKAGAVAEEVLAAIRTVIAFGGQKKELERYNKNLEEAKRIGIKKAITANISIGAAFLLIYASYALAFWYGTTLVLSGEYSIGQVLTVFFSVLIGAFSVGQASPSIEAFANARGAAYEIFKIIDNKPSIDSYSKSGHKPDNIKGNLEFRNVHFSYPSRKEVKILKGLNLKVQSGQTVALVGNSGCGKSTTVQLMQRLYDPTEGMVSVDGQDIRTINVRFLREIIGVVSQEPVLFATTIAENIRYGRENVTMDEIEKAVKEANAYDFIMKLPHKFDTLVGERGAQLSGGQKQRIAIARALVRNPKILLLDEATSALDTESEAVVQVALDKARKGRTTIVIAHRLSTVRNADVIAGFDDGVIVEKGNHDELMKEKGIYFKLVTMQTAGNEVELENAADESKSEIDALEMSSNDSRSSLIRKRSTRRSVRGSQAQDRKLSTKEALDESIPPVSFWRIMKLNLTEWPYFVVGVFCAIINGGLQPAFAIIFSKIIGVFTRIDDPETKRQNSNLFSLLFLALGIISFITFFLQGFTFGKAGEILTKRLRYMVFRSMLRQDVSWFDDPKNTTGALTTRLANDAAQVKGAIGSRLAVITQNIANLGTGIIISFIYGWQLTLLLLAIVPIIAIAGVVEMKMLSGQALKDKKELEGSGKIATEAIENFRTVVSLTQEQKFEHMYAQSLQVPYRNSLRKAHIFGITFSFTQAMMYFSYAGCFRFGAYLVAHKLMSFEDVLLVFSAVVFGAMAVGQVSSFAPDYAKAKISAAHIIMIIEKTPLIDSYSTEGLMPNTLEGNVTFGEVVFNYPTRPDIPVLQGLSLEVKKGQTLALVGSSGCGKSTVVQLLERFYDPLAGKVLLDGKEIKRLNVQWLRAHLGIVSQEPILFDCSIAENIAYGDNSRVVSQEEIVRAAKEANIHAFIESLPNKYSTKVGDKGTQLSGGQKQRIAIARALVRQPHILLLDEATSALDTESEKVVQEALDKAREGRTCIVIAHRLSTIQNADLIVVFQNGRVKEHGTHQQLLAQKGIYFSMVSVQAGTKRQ

Sequence of human CYP3A4 (P08684 whole entry): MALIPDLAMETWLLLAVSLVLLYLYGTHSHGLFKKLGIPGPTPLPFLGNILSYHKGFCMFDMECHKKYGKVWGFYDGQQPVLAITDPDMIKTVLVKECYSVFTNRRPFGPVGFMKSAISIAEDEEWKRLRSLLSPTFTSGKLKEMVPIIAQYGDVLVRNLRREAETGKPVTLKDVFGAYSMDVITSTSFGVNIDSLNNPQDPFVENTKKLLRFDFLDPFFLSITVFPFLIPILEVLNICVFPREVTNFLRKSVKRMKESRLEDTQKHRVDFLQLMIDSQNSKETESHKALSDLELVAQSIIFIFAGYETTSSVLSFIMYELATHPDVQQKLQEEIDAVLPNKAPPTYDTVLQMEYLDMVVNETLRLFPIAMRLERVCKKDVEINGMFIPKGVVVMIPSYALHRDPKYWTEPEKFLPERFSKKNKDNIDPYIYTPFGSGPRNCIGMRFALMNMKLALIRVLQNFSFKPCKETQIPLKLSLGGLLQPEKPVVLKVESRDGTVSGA

inhibition of human CYP3A4 (human CYP3A4): inhibits
inhibition of P-glycoprotein (P-glycoprotein): inhibits
SMILES: O=C(/C=C/C=C/c1ccc2c(c1)OCO2)N1CCCCC1 [Bioperine®, (2E,4E)-5-(1,3-benzodioxol-5-yl)-1-(piperidin-1-yl)penta-2,4-dien-1-one]
